# From ChEMBL document CHEMBL5661943, “ASAP - In vitro antiviral effect” (2024)
# pEC50: −log10 of the molar value.
# Columns and labels:
# [1] = test system: Zika virus; assay: Functional CPE-based assay to measure dose dependent changes in antiviral-drug inhibitory efficacy against Zika virus MR766 in Vero E6 miRFP670 cells (cotreated with P-gp inhibitor, CP100356). Cells are treated with antiviral candidates that are serially diluted. EC50 is reported via analysis of MTS assay as a readout of CPE. The assay has been performed by KU Leuven.; format: organism-based, Chlorocebus sabaeus, Vero C1008; settings: Zika virus; for EC90: P-gp concentration 500 nM, P-gp inhibitor CP100356
# [2] = test system: dengue virus type 2; assay: Functional assay to measure dose dependent changes in antiviral-drug inhibitory efficacy against Dengue virus type 2 New Guinea C in Vero E6 miRFP670 cells (cotreated with P-gp inhibitor, CP100356). Cells are treated with antiviral candidates that are serially diluted, following infection, cells are fixed. EC50 is reported via analysis of fluorescence intensity using high-content imager. The …; format: organism-based, Chlorocebus sabaeus, Vero C1008; settings: Dengue virus; for EC90: P-gp concentration 500 nM, P-gp inhibitor CP100356
smiles,measurement,setting,value
COc1cc(Br)cc(C(=O)Nc2ccc3c(c2)CNC3)c1,pEC50,[1]; Vero C1008,4.89
same,EC90,"[1]; Vero C1008, Baseline response 0 %, EC90 CI (lower) 14.493 uM, EC90 CI (upper) 28.879 uM, Hill slope 4.703, Maximum measured 104.946 %, Maximum response 100 %, Minimum measured 1.527 %, R squared 0.964",20.5 µM
same,pEC50,[2]; Vero C1008,< 4.60
same,EC90,"[2]; Vero C1008, Baseline response 0 %, Hill slope -0.242, Maximum measured 88.855 %, Maximum response 100 %, Minimum measured 49.171 %, R squared 0.071",> 25 µM
O=C(Nc1ccc2c(c1)CNC2)c1cccc2[nH]c(C(F)(F)F)cc12,pEC50,[1]; Vero C1008,6.07
same,EC90,"[1]; Vero C1008, Baseline response 0 %, EC90 CI (lower) 0.735 uM, EC90 CI (upper) 5.08 uM, Hill slope 2.705, Maximum measured 139.12 %, Maximum response 100 %, Minimum measured 13.658 %, R squared 0.773",1.93 µM
same,pEC50,[2]; Vero C1008,4.94
same,EC90,"[2]; Vero C1008, Baseline response 0 %, Hill slope -1.333, Maximum measured 97.959 %, Maximum response 100 %, Minimum measured 43.335 %, R squared 0.826",> 12.5 µM
O=C(Nc1ccc2c(c1)CNC2)c1cc(Cl)cc2[nH]c(-c3ccnn3C3CC3)nc12,pEC50,[1]; Vero C1008,< 6.11
same,EC90,"[1]; Vero C1008, Baseline response 0 %, Hill slope 2.383, Maximum measured 38.126 %, Maximum response 100 %, Minimum measured 10.566 %, R squared 0.88",> 0.781 µM
same,pEC50,[2]; Vero C1008,< 5.20
same,EC90,"[2]; Vero C1008, Baseline response 0 %, Hill slope 11.741, Maximum measured 109.967 %, Maximum response 100 %, Minimum measured 87.357 %, R squared 0.219",> 6.25 µM
O=C(NCCCn1ccnc1)[C@H](Nc1ccc2c(c1)CNC2)c1cc(Cl)cc(C2CC2)c1,pEC50,[1]; Vero C1008,< 4.30
same,EC90,"[1]; Vero C1008, Maximum measured 4.008 %, Minimum measured -17.269 %",> 50 µM
same,pEC50,[2]; Vero C1008,< 4.30
same,EC90,"[2]; Vero C1008, Baseline response 0 %, Hill slope 0.691, Maximum measured 120.843 %, Maximum response 100 %, Minimum measured 86.475 %, R squared 0.179",> 50 µM
O=C(Nc1ccc2c(c1)CNC2)c1cc(Cl)cc2[nH]c(-c3ccc(F)cc3O)nc12,pEC50,[1]; Vero C1008,< 6.11
same,EC90,"[1]; Vero C1008, Baseline response 0 %, Hill slope 0.819, Maximum measured -0.871 %, Maximum response 100 %, Minimum measured -1.788 %, R squared 0.426",> 0.781 µM
same,pEC50,[2]; Vero C1008,< 5.81
same,EC90,"[2]; Vero C1008, Maximum measured 186.201 %, Minimum measured 124.759 %",> 1.56 µM
Cn1cc2c(C(=O)Nc3ccc4c(c3)CNC4)cc(F)cc2n1,pEC50,[1]; Vero C1008,5.52
same,EC90,"[1]; Vero C1008, Baseline response 0 %, EC90 CI (lower) 4.41 uM, EC90 CI (upper) 19.306 uM, Hill slope 1.966, Maximum measured 124.261 %, Maximum response 100 %, Minimum measured 18.013 %, R squared 0.888",9.23 µM
same,pEC50,[2]; Vero C1008,< 4.30
same,EC90,"[2]; Vero C1008, Baseline response 0 %, Hill slope 0.83, Maximum measured 109.464 %, Maximum response 100 %, Minimum measured 93.167 %, R squared 0.272",> 50 µM
O=C(Nc1ccc2c(c1)CNC2)c1cc(Cl)cc2cc[nH]c12,pEC50,[1]; Vero C1008,6.00
same,EC90,"[1]; Vero C1008, Baseline response 0 %, EC90 CI (lower) 0.797 uM, EC90 CI (upper) 4.564 uM, Hill slope 3.408, Maximum measured 129.449 %, Maximum response 100 %, Minimum measured 8.447 %, R squared 0.85",1.91 µM
same,pEC50,[2]; Vero C1008,5.66
same,EC90,"[2]; Vero C1008, Baseline response 0 %, Hill slope -2.776, Maximum measured 94.432 %, Maximum response 100 %, Minimum measured 26.957 %, R squared 0.875",> 3.12 µM
CC1=C(c2cc(NC(=O)c3cc(Cl)cc4[nH]ncc34)cc3c2CNC3)CCC1=O,pEC50,[1]; Vero C1008,< 4.30
same,EC90,"[1]; Vero C1008, Baseline response 0 %, Hill slope 0.456, Maximum measured 3.948 %, Maximum response 100 %, Minimum measured -0.924 %, R squared 0.076",> 50 µM
same,pEC50,[2]; Vero C1008,< 4.30
same,EC90,"[2]; Vero C1008, Maximum measured 165.308 %, Minimum measured 53.221 %",> 50 µM
Cn1c(=O)[nH]c2c(C(=O)Nc3ccc4c(c3)CNC4)cc(Br)cc21,pEC50,[1]; Vero C1008,6.14
same,EC90,"[1]; Vero C1008, Baseline response 0 %, EC90 CI (lower) 0.762 uM, EC90 CI (upper) 6.925 uM, Hill slope 1.902, Maximum measured 109.696 %, Maximum response 100 %, Minimum measured 27.933 %, R squared 0.521",2.3 µM
same,pEC50,[2]; Vero C1008,< 4.30
same,EC90,"[2]; Vero C1008, Baseline response 0 %, Hill slope -2.293, Maximum measured 105.522 %, Maximum response 100 %, Minimum measured 55.095 %, R squared 0.397",> 50 µM
O=C(Nc1cc2c(c(C3=CC[C@H](O)CC3)c1)CNC2)c1cc(Cl)cc2[nH]ncc12,pEC50,[1]; Vero C1008,4.33
same,EC90,"[1]; Vero C1008, Baseline response 0 %, Hill slope 3.698, Maximum measured 56.446 %, Maximum response 100 %, Minimum measured 0.896 %, R squared 0.945",> 50 µM
same,pEC50,[2]; Vero C1008,< 4.30
same,EC90,"[2]; Vero C1008, Maximum measured 128.94 %, Minimum measured 80.48 %",> 50 µM
O=C(Nc1ccc2c(c1)CNC2)c1cccc2[nH]c(=O)[nH]c12,pEC50,[1]; Vero C1008,< 4.30
same,EC90,"[1]; Vero C1008, Maximum measured 11.079 %, Minimum measured -6.229 %",> 50 µM
same,pEC50,[2]; Vero C1008,< 4.90
same,EC90,"[2]; Vero C1008, Baseline response 0 %, Hill slope 0.241, Maximum measured 94.031 %, Maximum response 100 %, Minimum measured 72.295 %, R squared 0.287",> 12.5 µM
O=C(Nc1ccc2c(c1)CNC2)c1cccc2nc(O)ccc12,pEC50,[1]; Vero C1008,< 4.30
same,EC90,"[1]; Vero C1008, Maximum measured -4.519 %, Minimum measured -18.451 %",> 50 µM
same,pEC50,[2]; Vero C1008,< 4.30
same,EC90,"[2]; Vero C1008, Maximum measured 128.112 %, Minimum measured 90.404 %",> 50 µM
O=C1Cc2cc(C(=O)Nc3ccc4c(c3)CNC4)ccc2N1,pEC50,[1]; Vero C1008,< 4.30
same,EC90,"[1]; Vero C1008, Maximum measured 9.003 %, Minimum measured -9.167 %",> 50 µM
same,EC90,"[1]; Vero C1008, Baseline response 0 %, Hill slope 1.599, Maximum measured 7.523 %, Maximum response 100 %, Minimum measured -2.208 %, R squared 0.547",> 50 µM
same,pEC50,[2]; Vero C1008,< 4.30
same,EC90,"[2]; Vero C1008, Maximum measured 132.031 %, Minimum measured 88.326 %",> 50 µM
same,EC90,"[2]; Vero C1008, Maximum measured 147.509 %, Minimum measured 105.326 %",> 50 µM
same,EC90,"[2]; Vero C1008, Maximum measured 183.11 %, Minimum measured 101.645 %",> 50 µM
O=C(NCc1cccnc1)[C@H](Nc1ccc2c(c1)CNC2)c1cc(Cl)cc2[nH]ncc12,pEC50,[1]; Vero C1008,< 4.30
same,EC90,"[1]; Vero C1008, Maximum measured -0.377 %, Minimum measured -17.936 %",> 50 µM
same,pEC50,[2]; Vero C1008,< 4.30
same,EC90,"[2]; Vero C1008, Maximum measured 132.553 %, Minimum measured 89.084 %",> 50 µM
O=C(Nc1ccc2c(c1)CNC2)c1cccc2cn[nH]c12,pEC50,[1]; Vero C1008,< 4.30
same,EC90,"[1]; Vero C1008, Baseline response 0 %, Hill slope 0.311, Maximum measured 17.727 %, Maximum response 100 %, Minimum measured -4.778 %, R squared 0.076",> 50 µM
same,pEC50,[2]; Vero C1008,4.34
same,EC90,"[2]; Vero C1008, Baseline response 0 %, Hill slope -1.364, Maximum measured 96.577 %, Maximum response 100 %, Minimum measured 45.147 %, R squared 0.579",> 50 µM
O=C(Nc1cc2c(cc1Br)CNC2)c1cc(F)cc2[nH]ncc12,pEC50,[1]; Vero C1008,6.14
same,EC90,"[1]; Vero C1008, Baseline response 0 %, EC90 CI (lower) 0.74 uM, EC90 CI (upper) 4.973 uM, Hill slope 2.246, Maximum measured 124.778 %, Maximum response 100 %, Minimum measured 29.701 %, R squared 0.756",1.92 µM
same,pEC50,[2]; Vero C1008,< 4.60
same,EC90,"[2]; Vero C1008, Baseline response 0 %, Hill slope -2.027, Maximum measured 102.892 %, Maximum response 100 %, Minimum measured 55.622 %, R squared 0.83",> 25 µM
O=C(Nc1ccc2c(c1)CNC2)c1cc(F)cc(-c2cnc(C3CC3)s2)c1,pEC50,[1]; Vero C1008,5.27
same,EC90,"[1]; Vero C1008, Baseline response 0 %, Hill slope 4.772, Maximum measured 67.326 %, Maximum response 100 %, Minimum measured 1.512 %, R squared 0.988",> 6.25 µM
same,pEC50,[2]; Vero C1008,4.94
same,EC90,"[2]; Vero C1008, Baseline response 0 %, Hill slope -1.802, Maximum measured 130.062 %, Maximum response 100 %, Minimum measured 44.88 %, R squared 0.382",> 12.5 µM
O=C(Nc1ccc2c(c1)CNC2)c1cc(Cl)cc2ccccc12,pEC50,[1]; Vero C1008,< 4.30
same,EC90,"[1]; Vero C1008, Baseline response 0 %, Hill slope -0.363, Maximum measured 9.094 %, Maximum response 100 %, Minimum measured -16.765 %, R squared 0.057",> 50 µM
same,pEC50,[2]; Vero C1008,< 4.30
same,EC90,"[2]; Vero C1008, Baseline response 0 %, Hill slope 0.531, Maximum measured 139.444 %, Maximum response 100 %, Minimum measured 57.429 %, R squared 0.178",> 50 µM
O=C(Nc1ccc2c(c1)CNC2)c1cc(Cl)cc2c1NCCC2,pEC50,[1]; Vero C1008,< 4.30
same,EC90,"[1]; Vero C1008, Maximum measured 8.781 %, Minimum measured -16.872 %",> 50 µM
same,pEC50,[2]; Vero C1008,< 4.30
same,EC90,"[2]; Vero C1008, Baseline response 0 %, Hill slope 0.298, Maximum measured 134.107 %, Maximum response 100 %, Minimum measured 52.01 %, R squared 0.047",> 50 µM
